Source: patent publication US5703094A, “Quinolone- and naphthyridonecarboxylic acid derivatives” (Bayer Aktiengesellschaft, priority 1995, dated 1997)
Converted amounts (≈) assume the structure as drawn.

Experiments:
E. coli Neumann = assay: minimum inhibitory concentration, series dilution method on Iso-Sensitest agar; format: cell-based; details: Escherichia coli, 37° C., about 20 hours
Experimental: (§1) Tables 9 and 10 show the minimum inhibitory concentrations (MIC values), as a measure of the antibacterial activity, and the ID50 values, as a measure of the interactions with mammalian DNA of a substance, both for compounds according to the invention and for reference compounds from the prior art (EP 520 240).
(§2) The minimum inhibitory concentrations (MIC) were determined by a series dilution method on Iso-Sensitest agar (Oxoid). For each test substance, a series of agar plates each comprising concentrations of the active compound decreasing by double dilution in each case was prepared. The agar plates were inoculated with a multipoint inoculator (Denley). Overnight cultures of the pathogens which had been diluted beforehand such that each inoculation point comprised about 10^4 colony-forming particles were used for the inoculation. The inoculated agar plates were incubated at 37° C. and the germ growth was read off after about 20 hours. The MIC value (μg/ml) indicates the lowest active compound concentration at which no growth was detectable with the naked eye.

Ps. aeruginosa Walter = assay: as above; format: cell-based; details: Pseudomonas aeruginosa, 37° C., about 20 hours
Experimental: as §1, §2

Staph. aureus 133 = assay: as above; format: cell-based; details: Staphylococcus aureus, 37° C., about 20 hours
Experimental: as §1, §2

Staph. aureus ICB 25701 = assay: as above; format: cell-based; details: Staphylococcus aureus, ICB25701, 37° C., about 20 hours
Experimental: as §1, §2

[1] = inhibition of DNA synthesis in CHO-KI cells (interactions with mammalian DNA), fluorophotometric; format: cell-based, Chinese hamster; details: hamster, cho-k1 cells, measure of interactions with mammalian DNA, read-out: ID50 (concentration at which DNA synthesis is inhibited by 50%)
Text: as §1
The ID50 is understood as meaning the concentration of a substance at which DNA synthesis in cells from ovaries of the Chinese hamster (CHO-KI) is inhibited by 50%. This value is determined after incubation of the corresponding substances in decreasing dilution stages over defined periods of time. For this, the DNA synthesis in CHO-KI cells is determined in comparison with controls by means of fluorophotometric methods.

Row | SMILES | MIC (E. coli Neumann) [µg/mL] | MIC (Ps. aeruginosa Walter) [µg/mL] | MIC (Staph. aureus 133) [µg/mL] | MIC (Staph. aureus ICB 25701) [µg/mL] | IC50 [1] [µg/mL]
1 | NC1C=CCC2CN(c3c(F)cc4c(=O)c(C(=O)O)cn(C5CC5)c4c3F)CC12 (centres unmarked) [Example 17 B, 7(4-amino-1,3,3a,4,7,7a-hexahydro-isoindol-2-yl)-1-cyclopropyl-6,8-difluoo-1,4-dihydro-4-oxo-3-quinolinecarboxylic acid, reference compound] | ≤ 0.015 | 0.25 (≈ 0.623 µM) | ≤ 0.015 | 0.03 (≈ 0.0747 µM) | 0.01 (≈ 0.0249 µM)
2 | N[C@@H]1CCC=C2CN(c3c(F)cc4c(=O)c(C(=O)O)cn([C@@H]5C[C@@H]5F)c4c3F)C[C@@H]21 (relative stereo) [Example 4, 7-[(3aRS,4RS)-4-amino-2,3,3a,4,5,6-hexahydro-1H-isoindol-2-yl]-6,8-difluoro-1-(cis-2-fluorocyclopropyl)-1,4-dihydro-4-oxo-3-quinolinecarboxylic acid] | ≤ 0.015 | 0.25 (≈ 0.596 µM) | ≤ 0.015 | 0.03 (≈ 0.0715 µM) | 2 (≈ 4.77 µM)
3 | NC1C=CCC2CN(c3c(F)cc4c(=O)c(C(=O)O)cn(C5CC5)c4c3Cl)CC12 (centres unmarked) [Example 18 A, 7(4-amino-1,3,3a4,7,7a-hexahydro-isoindol-2-yl)-8-chloro-1-cyclopropyl-6-luoro-1,4-dihydro-4-oxo-3-quinolinecarboxylic acid, reference compound] | ≤ 0.015 | 0.25 (≈ 0.598 µM) | ≤ 0.015 | ≤ 0.015 | 0.06 (≈ 0.144 µM)

Other lines, results leading:

Row | MIC (E. coli Neumann) [µg/mL] | MIC (Ps. aeruginosa Walter) [µg/mL] | MIC (Staph. aureus 133) [µg/mL] | MIC (Staph. aureus ICB 25701) [µg/mL] | IC50 [1] [µg/mL] | SMILES
4 | ≤ 0.015 | 1 (≈ 2.61 µM) | ≤ 0.015 | 1 (≈ 2.61 µM) | 1 (≈ 2.61 µM) | NC1C=CCC2CN(c3cc4c(cc3F)c(=O)c(C(=O)O)cn4C3CC3)CC12 (centres unmarked) [Example 19, 7(4-amino-1,3,3a,4,7,7a-hexahydro-isoindol-2-yl)-1-cyclopropyl-6-fluoro-14-dihydro-4-oxo-3-quinolinecarboxylic acid, reference compound]
5 | ≤ 0.015 | 0.5 (≈ 1.2 µM) | ≤ 0.015 | ≤ 0.015 | 0.1 (≈ 0.239 µM) | N[C@@H]1CCC=C2CN(c3c(F)cc4c(=O)c(C(=O)O)cn(C5CC5)c4c3Cl)C[C@@H]21 (racemic) [Example 3, 7-[(3aRS,4RS)-4-amino-2,3,3a,4,5,6-hexahydro-1H-isoindol-2-yl]-8-chloro-1-cyclopropyl-6-fluoro-1,4-dihydro-4-oxo-3-quinolinecarboxylic acid]
6 | ≤ 0.015 | 0.125 (≈ 0.311 µM) | ≤ 0.015 | ≤ 0.015 | 4 (≈ 9.96 µM) | N[C@@H]1CCC=C2CN(c3c(F)cc4c(=O)c(C(=O)O)cn(C5CC5)c4c3F)C[C@@H]21 (racemic) [Example 1, 7-[(3aRS,4RS)-4-amino-2,3,3a,4,5,6-hexahydro-1H-isoindol-2-yl]-1-cyclopropyl-6,8-difluoro-1,4-dihydro-4-oxo-3-quinolinecarboxylic acid]
7 | ≤ 0.015 | 1 (≈ 2.61 µM) | ≤ 0.015 | 0.125 (≈ 0.326 µM) | 2 (≈ 5.22 µM) | N[C@@H]1CCC=C2CN(c3cc4c(cc3F)c(=O)c(C(=O)O)cn4C3CC3)C[C@@H]21 (racemic) [Example 2, 7-[(3aRS,4RS)-4-amino-2,3,3a,4,5,6-hexahydro-1H-isoindol-2-yl]-1-cyclopropyl-6-fluoro-1,4-dihydro-4-oxo-3-quinolinecarboxylic acid]
